Test results from patent US20080280943A1, “METHODS AND PACKAGES TO ENHANCE SAFETY WHEN USING IMIQUIMOD TO TREAT CHILDREN DIAGNOSED WITH SKIN DISORDERS” (priority 2007, published 2008).

Experiments:
[1] = Safety assessment in the vehicle-controlled MC study (N=323); type: in vivo, human (children aged 2 to 12 years)
Method: (§1) More particularly, the objective is to evaluate the efficacy of imiquimod cream, 5% (imiquimod) for the treatment of molluscum contagiosum (MC) lesions in pediatric subjects when the cream was applied 3 times per week (3×/wk) for up to 16 weeks. The efficacy of imiquimod is evaluated by assessing MC lesion clearance. The primary efficacy parameter is complete clearance of all MC lesions (complete clinical resolution) from treatment initiation to the week 18/efficacy visit. Secondary efficacy parameters include partial clearance, defined as ≧50% reduction from the baseline lesion count, and the change in total lesion count. Time to complete clearance is also compared between treatment groups. The secondary objective is to evaluate the safety of imiquimod. Safety assessments are conducted throughout the study. Safety was assessed through incidence and severity of adverse events (AEs); local skin reactions (LSRs) of erythema, edema, erosion/ulceration, weeping/exudates, scabbing/crusting, and flaking/scaling/dryness; skin quality assessments; vital signs measurements; general physical examinations; hematology laboratory tests; and concomitant medication use.
This is a randomized, vehicle-controlled, double-blind, parallel group, study that is conducted in children aged 2 to 12 years of age who had ≧2 clinically verified MC lesions. Enrollment is monitored to ensure at least 50% of subjects had at least 5 MC lesions, at least 50% of subjects are under 6 years of age, and a sufficient number of subjects enrolled with periocular lesions. Subjects are randomized 2:1 (imiquimod: vehicle) and apply study cream 3×/wk for up to 16 weeks (or until complete resolution of all MC lesions) to all target MC lesions. […] At the screening/treatment initiation visit, MC lesions and application area locations are recorded on a body diagram. […] At each study visit, MC lesions are counted and recorded, and safety procedures are performed. […] MC lesions are treated 3×/wk for up to 16 weeks, or until determined that all MC lesions are cleared. […]

[2] = Systemic absorption of imiquimod across affected skin of 22 subjects with extensive MC (serum levels, hematology); type: in vivo, human (subjects aged 2 to 12 years)
Method: Systemic absorption of imiquimod across the affected skin of 22 subjects aged 2 to 12 years with extensive MC involving at least 10% of the total body surface area is observed after single and multiple doses at a dosing frequency of 3 applications per week for 4 weeks. The investigator determines the dose applied, i.e., either 1, 2 or 3 packets per dose, based on the size of the treatment area and the subject's weight. […] Children aged 2-5 years receive doses of 12.5 mg (one packet) or 25 mg (two packets) of imiquimod and have median multiple-dose peak serum drug levels of approximately 0.2 or 0.5 ng/ml, respectively. Children aged 6-12 years receive doses of 12.5 mg, 25 mg, or 37.5 mg (three packets) and have median multiple dose serum drug levels of approximately 0.1, 0.15, or 0.3 ng/ml, respectively. Among the 20 subjects with evaluable laboratory assessments, the median WBC count decreases by 1.4*10^9/L and the median absolute neutrophil count decreases by 1.42*10^9/L.

[3] = test system: molluscum contagiosum (MC) lesions; assay: Study 1: randomized, vehicle-controlled, double-blind trial in pediatric subjects with molluscum contagiosum, efficacy; type: in vivo, human (pediatric subjects)
Method: Aldara® Cream, commercially available via prescription and manufactured by 3M Health Care Limited, Loughborough LE11 1EP England, and distributed by Graceway Pharmaceuticals, LLC, Bristol, Tenn. 37620, is evaluated in two randomized, vehicle-controlled, double-blind trials involving 702 pediatric subjects with molluscum contagiosum (MC) (470 are exposed to Aldara; median age 5 years, range 2-12 years). Subjects apply Aldara® Cream or vehicle 3 times weekly for up to 16 weeks. Complete clearance (no MC lesions) is assessed at Week 18. […] Similar to the studies conducted in adults, the most frequently reported adverse reaction from 2 studies in children with molluscum contagiosum is application site reaction. Adverse events which occur more frequently in Aldara®-treated subjects as compared with vehicle-treated subjects generally resemble those seen in studies in indications approved for adults and also included otitis media (5% Aldara vs. 3% vehicle) and conjunctivitis (3% Aldara® vs. 2% vehicle). Erythema is the most frequently reported local skin reaction. The severe local skin reactions that are reported by Aidara®-treated subjects in the pediatric studies include erythema (28%), edema (8%), scabbing/crusting (5%), flaking/scaling (5%), erosion (2%) and weeping/exudate (2%).
as §1
This is a randomized, vehicle-controlled, double-blind, parallel group, study that is conducted in children aged 2 to 12 years of age who had ≧2 clinically verified MC lesions. Enrollment is monitored to ensure at least 50% of subjects had at least 5 MC lesions, at least 50% of subjects are under 6 years of age, and a sufficient number of subjects enrolled with periocular lesions. Subjects are randomized 2:1 (imiquimod: vehicle) and apply study cream 3×/wk for up to 16 weeks (or until complete resolution of all MC lesions) to all target MC lesions. Subjects who weigh <25 kg apply up to 2 sachets of study cream, while subjects who weigh ≧25 kg apply up to 3 sachets. At the screening/treatment initiation visit, MC lesions and application area locations are recorded on a body diagram. […] At each study visit, MC lesions are counted and recorded, and safety procedures are performed. […]

[4] = 20 subjects with evaluable laboratory assessments

With `CC(C)Cn1cnc2c(N)nc3ccccc3c21` [imiquimod, 1-isobutyl-1H-imidazo[4,5-c]-quinolin-4-amine] the overall safety conclusion ([1]; children ages 2 to 12 with MC, dosed 3×/wk for up to 16 weeks) was “safe”, the “subjects discontinued from the treatment period due to AEs” value ([1]; none severe in intensity, vehicle 1) was 2 subjects and the “subjects reporting at least 1 AE considered possibly or probably related to study drug” value ([1]; vehicle 19.8%, p=0.013) was 33.6%. For the same molecule, the “decrease in median WBC count” value [2, 4] was 1.4e+09 L⁻¹, the “decrease in median absolute neutrophil count” value [2, 4] was 1.42e+09 L⁻¹ and the “median multiple-dose peak serum drug level” value ([2]; children aged 2-5 years, 12.5 mg (one packet)) was “approximately 0.2 ng/ml”. The “peak serum imiquimod concentrations following both single and multiple doses” value ([2]; children, topical imiquimod (summary statement)) was less than 2 ng/mL, the Cmax ([2]; human, in vivo, 25 mg, single person, 2 packets of study drug per dose, read-out: Cmax after multiple dosing) was 9.66 ng/mL and the “median WBC count decreased by” value ([2]; summary statement) was “about 1.4 *109/L”. For the same molecule, the “median absolute neutrophil count decreased by” value ([2]; summary statement) was “about 1.42 *109/L”, the “partial clearance rate (≧50% reduction from baseline lesion count) at week 18” value ([3]; ITT, 108/217, vehicle 45.3%, p=0.4416) was 49.8% and the “complete clearance rate (no MC lesions) at Week 18” value ([3]; Study 1, ITT, 52/217, cream applied 3 times weekly for up to 16 weeks, vehicle 26% (28/106)) was 24.0%. The “efficacy versus vehicle cream with respect to complete and partial clearance of MC lesions” value ([3]; dosed 3×/wk for up to 16 weeks) was “not statistically significantly more effective than vehicle cream”, the “distribution in time to complete clearance versus vehicle” value ([3]; generalized Wilcoxon Test, p=0.7830) was “not significantly different” and the “median percent reduction in MC lesions at week 18” value ([3]; vehicle 37.3%) was 48.1%.
